# Source: paper PMC6886544
# Where “and” joins values, the source holds several entries; their conditions need not be identical. Identical values can stand only once. Like-named read-outs stand apart in the source and are kept apart here.
# Tests used:
# [1] = test system: HCC827 cells (EGFR-delE746_A750); assay: CellTiter-Glo viability assay, HCC827; format: cell-based; conditions: Homo sapiens; HCC827, 96 hours, CellTiter-Glo; read-out: EGFR CTG EC50 HCC827;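 note: luminescence from ATP content as a measure of metabolically active cells, in RPMI with 10% FBS, compound added as serial dilutions after 24 h of preculture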
# Experimental: (§1) A431, HCC827, H1975, A549 and H358 cells were obtained from the American Type Culture Collection (ATCC). A431 cells were cultured in DMEM high glucose media (Life Technologies, Germany), and HCC827, H1975, A549 as well as H358 cells were cultured in RPMI media (Life Technologies, Germany), both containing L-Glutamine and were supplemented with 10% FBS (GE Healthcare, Austria) and 1% PenStrep (Life Technologies, Germany) in a humidified incubator at 37 °C and 5% CO2.
# (§2) Cells were seeded at cell numbers that assure linearity and optimal signal intensity (150-300 cells/well, 25 µL) and cultured for 24 hours in serum- and antibiotics-containing media in humidified chambers at 37 °C / 5% CO2. The cells were then treated with EGFR inhibitors in serial
# (§3) Afterwards viability studies were carried out using CellTiter-Glo Assay (Promega, USA) that is a homogeneous method of determining the number of viable cells in culture. It is based on quantification of ATP, indicating the presence of metabolically active cells. For these studies, CellTiter-Glo reagent was prepared according to the instructions of the kit and diluted 1:1 with the complete growth medium suitable for the corresponding cell line. Thereon, reagent and assay plates were equilibrated at room temperature for 20 min. Equal volumes of the reagent were added to the volume of culture medium present in each well (25 µL). The plates were mixed for 2 minutes on an orbital shaker to induce cell lysis. The microplates were then incubated at room temperature for 20 minutes for stabilization of the luminescent signal. Following incubation the luminescence was recorded on an EnVision microplate reader (Perkin Elmer) using 500 ms integration time. The data was then analyzed using the Quattro Research Software Suite for EC50-determination. As quality control the Z’-factor was calculated from 16 positive and negative control values. Only assay results showing a Z’-factor ≥0.5 were used for further analysis. All data points were measured in duplicates for each plate and were replicated in at least two plates.
# [2] = test system: H358 cells (KRAS mutant); assay: CellTiter-Glo viability assay, H358; format: cell-based; conditions: Homo sapiens, read-out: KRAS CTG EC50 H358;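 note: viable cell number estimated from ATP-dependent luminescence following exposure to serially diluted inhibitor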
# Experimental: as §1, §2, §3
# [3] = test system: A431 cells (EGFR wild type); assay: CellTiter-Glo viability assay, A431; conditions: Homo sapiens, A-431, 96 h, read-out: EGFR CTG EC50 A431, A431, 96 hours, CellTiter-Glo
# Experimental: as §1, §2, §3
# [4] = test system: A549 cells (KRAS mutant); assay: CellTiter-Glo viability assay, A549; conditions: Homo sapiens, A549, 96 h, read-out: KRAS CTG EC50 A549
# Experimental: as §1, §2, §3
# [5] = test system: H1975 cells (EGFR-L858R/T790M); assay: CellTiter-Glo viability assay, H1975
# Experimental: as §1, §2, §3
# [6] = Microsomal stability (phase I), mouse; format: in vitro ADME; conditions: mouse liver microsomes, up to 60 minutes, 37 °C
# Experimental: Microsomal stability (phase I) assay.
# Metabolic stability under oxidative conditions was measured in liver microsomes from different
# time up to 50 minutes (HLM) or 60 minutes (MLM) at 37 °C. Based on the compound half-life t1/2,
# the in vitro intrinsic clearance CLint was calculated. […]
# [7] = biological target: EGFR-wt (Homo sapiens, UniProt P00533); assay: HTRF KinEASE-TK activity-based assay, EGFR-wt
# EGFR-wt, sequence (P00533 25-1210): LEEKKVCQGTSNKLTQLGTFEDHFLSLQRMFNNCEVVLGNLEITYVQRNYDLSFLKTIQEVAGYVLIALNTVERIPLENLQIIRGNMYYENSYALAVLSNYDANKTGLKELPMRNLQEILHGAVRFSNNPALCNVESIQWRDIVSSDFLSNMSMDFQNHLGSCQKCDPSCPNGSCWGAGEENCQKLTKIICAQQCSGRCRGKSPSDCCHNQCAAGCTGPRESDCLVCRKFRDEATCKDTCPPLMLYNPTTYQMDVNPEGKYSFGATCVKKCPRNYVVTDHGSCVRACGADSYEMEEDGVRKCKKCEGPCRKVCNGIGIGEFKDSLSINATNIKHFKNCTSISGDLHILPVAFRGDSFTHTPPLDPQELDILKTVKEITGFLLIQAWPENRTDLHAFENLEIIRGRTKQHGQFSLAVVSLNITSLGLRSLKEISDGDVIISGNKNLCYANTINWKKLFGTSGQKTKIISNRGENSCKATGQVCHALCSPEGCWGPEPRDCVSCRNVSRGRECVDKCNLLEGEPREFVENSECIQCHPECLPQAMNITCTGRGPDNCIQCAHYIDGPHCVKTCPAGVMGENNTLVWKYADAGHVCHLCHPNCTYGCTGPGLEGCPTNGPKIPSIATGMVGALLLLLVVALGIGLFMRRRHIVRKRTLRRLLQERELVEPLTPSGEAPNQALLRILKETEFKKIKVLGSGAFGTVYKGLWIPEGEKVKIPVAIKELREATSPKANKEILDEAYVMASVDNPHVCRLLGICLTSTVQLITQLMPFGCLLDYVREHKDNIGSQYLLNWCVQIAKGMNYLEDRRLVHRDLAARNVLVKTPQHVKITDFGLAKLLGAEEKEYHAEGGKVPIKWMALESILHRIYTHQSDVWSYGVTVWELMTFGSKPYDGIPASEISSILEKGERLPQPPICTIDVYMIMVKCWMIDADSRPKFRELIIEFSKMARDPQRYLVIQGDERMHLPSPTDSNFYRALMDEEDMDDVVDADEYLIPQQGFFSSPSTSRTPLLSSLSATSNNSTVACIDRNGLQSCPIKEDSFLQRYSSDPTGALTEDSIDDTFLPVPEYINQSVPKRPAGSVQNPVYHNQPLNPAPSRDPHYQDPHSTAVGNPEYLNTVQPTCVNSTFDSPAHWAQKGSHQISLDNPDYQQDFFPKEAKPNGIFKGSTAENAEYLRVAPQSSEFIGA
# [8] = biological target: EGFR-L858R (Homo sapiens, UniProt P00533, L858R); assay: HTRF KinEASE-TK activity-based assay, EGFR-L858R
# EGFR-L858R, sequence (P00533 25-1210 L858R): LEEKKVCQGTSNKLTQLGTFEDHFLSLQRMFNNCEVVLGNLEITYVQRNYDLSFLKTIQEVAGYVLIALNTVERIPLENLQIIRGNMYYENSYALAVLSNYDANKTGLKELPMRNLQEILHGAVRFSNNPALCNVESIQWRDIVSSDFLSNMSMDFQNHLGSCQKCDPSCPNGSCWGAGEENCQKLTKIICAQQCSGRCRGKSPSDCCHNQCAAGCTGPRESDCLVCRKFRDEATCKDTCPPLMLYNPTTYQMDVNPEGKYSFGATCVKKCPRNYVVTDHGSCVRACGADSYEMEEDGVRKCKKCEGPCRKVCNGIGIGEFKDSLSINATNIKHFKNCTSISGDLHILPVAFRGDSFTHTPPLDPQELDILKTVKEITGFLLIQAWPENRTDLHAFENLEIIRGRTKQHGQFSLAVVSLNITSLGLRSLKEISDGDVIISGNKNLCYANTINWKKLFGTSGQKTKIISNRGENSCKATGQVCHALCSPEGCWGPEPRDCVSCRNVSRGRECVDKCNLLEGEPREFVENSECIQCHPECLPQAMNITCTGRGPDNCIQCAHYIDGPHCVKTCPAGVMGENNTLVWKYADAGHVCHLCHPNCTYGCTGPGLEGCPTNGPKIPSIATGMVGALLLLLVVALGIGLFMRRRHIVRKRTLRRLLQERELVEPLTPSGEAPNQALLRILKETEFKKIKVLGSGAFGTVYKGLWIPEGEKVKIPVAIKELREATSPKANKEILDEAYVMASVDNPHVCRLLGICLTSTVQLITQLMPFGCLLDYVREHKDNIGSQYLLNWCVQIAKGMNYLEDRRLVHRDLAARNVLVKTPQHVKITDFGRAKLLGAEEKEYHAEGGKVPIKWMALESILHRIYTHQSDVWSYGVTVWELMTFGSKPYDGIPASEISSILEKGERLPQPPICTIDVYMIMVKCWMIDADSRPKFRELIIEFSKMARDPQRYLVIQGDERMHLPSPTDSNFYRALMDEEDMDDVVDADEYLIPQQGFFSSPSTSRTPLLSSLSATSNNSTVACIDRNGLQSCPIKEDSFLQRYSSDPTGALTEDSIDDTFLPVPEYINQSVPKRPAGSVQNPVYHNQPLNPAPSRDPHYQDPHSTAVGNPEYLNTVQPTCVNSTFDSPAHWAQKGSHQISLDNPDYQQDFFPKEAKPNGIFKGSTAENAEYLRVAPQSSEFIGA
# [9] = biological target: EGFR-L858R/T790M (Homo sapiens, UniProt P00533, L858R/T790M); assay: HTRF KinEASE-TK activity-based assay, EGFR-L858R/T790M
# EGFR-L858R/T790M, sequence (P00533 25-1210 T790M/L858R): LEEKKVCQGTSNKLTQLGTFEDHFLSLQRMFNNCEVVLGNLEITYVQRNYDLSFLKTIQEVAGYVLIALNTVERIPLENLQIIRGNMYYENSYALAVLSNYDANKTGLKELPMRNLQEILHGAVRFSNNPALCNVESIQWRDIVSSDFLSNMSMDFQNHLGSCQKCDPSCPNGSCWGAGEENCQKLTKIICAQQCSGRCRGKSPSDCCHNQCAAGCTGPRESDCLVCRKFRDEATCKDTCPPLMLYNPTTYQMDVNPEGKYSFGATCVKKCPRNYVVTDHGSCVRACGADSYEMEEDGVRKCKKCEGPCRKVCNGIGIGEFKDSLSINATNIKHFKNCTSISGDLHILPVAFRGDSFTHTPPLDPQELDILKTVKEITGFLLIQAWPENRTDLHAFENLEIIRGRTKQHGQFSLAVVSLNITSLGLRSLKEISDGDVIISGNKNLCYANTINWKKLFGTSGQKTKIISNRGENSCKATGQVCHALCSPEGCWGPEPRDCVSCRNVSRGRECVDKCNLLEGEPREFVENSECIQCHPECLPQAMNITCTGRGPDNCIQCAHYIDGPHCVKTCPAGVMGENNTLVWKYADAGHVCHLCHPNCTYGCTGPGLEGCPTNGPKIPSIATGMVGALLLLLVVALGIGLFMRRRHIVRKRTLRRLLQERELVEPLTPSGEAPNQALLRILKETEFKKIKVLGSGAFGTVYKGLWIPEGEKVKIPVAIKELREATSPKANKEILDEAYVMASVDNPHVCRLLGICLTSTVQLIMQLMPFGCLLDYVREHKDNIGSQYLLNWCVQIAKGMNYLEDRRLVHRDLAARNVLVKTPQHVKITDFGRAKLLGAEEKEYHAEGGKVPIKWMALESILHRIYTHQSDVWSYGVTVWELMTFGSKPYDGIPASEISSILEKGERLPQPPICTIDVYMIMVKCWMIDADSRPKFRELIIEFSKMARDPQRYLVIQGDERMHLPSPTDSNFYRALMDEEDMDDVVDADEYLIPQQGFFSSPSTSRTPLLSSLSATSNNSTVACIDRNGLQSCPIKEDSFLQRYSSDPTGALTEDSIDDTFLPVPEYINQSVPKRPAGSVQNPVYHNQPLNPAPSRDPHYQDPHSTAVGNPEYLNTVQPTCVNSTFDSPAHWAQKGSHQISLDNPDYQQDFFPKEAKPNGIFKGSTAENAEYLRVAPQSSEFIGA
# [10] = NCI-H358, H358, 96 hours, CellTiter-Glo
# [11] = Homo sapiens, NCI-H1975, 96 h, read-out: EGFR CTG EC50 H1975, H1975, 96 hours, CellTiter-Glo
# [12] = EGFR HTRF IC50 wt, ATP at Km (9.5 µM), 30 min preincubation, mean ± SD of three independent measurements in duplicates
# [13] = EGFR HTRF IC50 L858R/T790M, ATP at Km (4 µM), 30 min preincubation, mean ± SD of three independent measurements in duplicates
# [14] = read-out: EGFR CTG EC50 H1975, H1975, 96 hours, CellTiter-Glo
SMILES,EC50 [1] [nM],"EC50 [2, 10] [nM]",EC50 [3] [nM],EC50 [4] [nM],"EC50 [5, 11] [nM]","EC50 ([2]; NCI-H358, 96 h) [nM]",microsomal CLint at 3 µM [6] [µL/min/mg],"IC50 [7, 12] [nM]","IC50 ([7]; IC50 EGFR-wt, rounded value) [nM]",IC50 [8] [nM],"IC50 [9, 13]","IC50 ([9]; IC50 gatekeeper mutant EGFR, rounded value) [nM]","EC50 ([5]; Homo sapiens, NCI-H1975, read-out: EC50 / potency in H1975 cells, H1975, rounded value in running text) [nM]","EC50 [5, 14] [nM]"
"CCN1CCN(Cc2ccc(-c3cc4c(N[C@H](C)c5ccccc5)ncnc4[nH]3)cc2)CC1 [AEE788, reference compound]",16 ± 3,3780 ± 383,1790 ± 1090,3970 ± 720,4680 ± 1030,–,–,–,–,–,–,–,–,–
"CN(C)C/C=C/C(=O)Nc1cc2c(Nc3ccc(F)c(Cl)c3)ncnc2cc1O[C@H]1CCOC1 [Afatinib, afatinib, reference compound]",–,–,–,1490 ± 430,–,1330 ± 515,6,–,–,–,–,–,–,–
C=CC(=O)Nc1cccc(-c2c(-c3ccccc3)[nH]c3ncnc(OC)c23)c1 [Compound 1a],827 ± 234,> 30000,> 30000,> 30000,–,–,156,1200 ± 87,~1000,133 ± 57,176 ± 33 nM,–,–,–
CCC(=O)Nc1cccc(-c2c(-c3ccccc3)[nH]c3ncnc(OC)c23)c1 [Compound 1b],–,> 30000,> 30000,> 30000,> 30000,–,–,5370 ± 1920,5000,1700 ± 747,3960 ± 614 nM,4000,–,–
C=CC(=O)Nc1cccc(-c2c[nH]c3ncnc(OC)c23)c1 [Compound 9],2170 ± 968,24500 ± 4870,–,13600 ± 1400,9910 ± 3390,–,–,82 ± 4,–,14 ± 2,< 100 nM and 31 nM,–,–,–
COc1ncnc2[nH]c(-c3ccc(C)cc3)c(-c3cccc(NC(=O)C=CCN4CCCCC4)c3)c12 [Compound 10c],253 ± 1,4250 ± 336,2750 ± 1220,4480 ± 896,1900 ± 269,–,–,220 ± 57,–,197 ± 11,158 ± 16 nM,–,~2000,–
CCC(=O)Nc1cccc(-c2c(-c3ccc(CN4CCN(C)CC4)cc3)[nH]c3ncnc(OC)c23)c1 [Compound 17b],1520 ± 399,10300 ± 2170,5670 ± 60,5730 ± 1430,9610 ± 1120,–,–,460 ± 162,–,116 ± 57,302 ± 84 nM,–,–,–
C=CC(=O)Nc1cccc(-c2c(-c3ccc(N4CCN(C)CC4)cc3)[nH]c3ncnc(OC)c23)c1 [Compound 19a],< 14,1670 ± 721,638 ± 247,840 ± 289,60 ± 8,–,–,0.4,–,0.1,0.2 nM,–,–,–
CCC(=O)Nc1cccc(-c2c(-c3ccc(N4CCN(C)CC4)cc3)[nH]c3ncn(C)c(=O)c23)c1 [Compound 19b],1790 ± 727,10200 ± 2240,9730 ± 4020,6260 ± 1090,–,–,–,996 ± 395,–,147 ± 97,305 ± 192 nM,–,–,–
C=CC(=O)Nc1cccc(-c2c(-c3ccc(N4CCN(C)CC4)cc3)[nH]c3ncnc(OCC)c23)c1 [Compound 19c],< 14,1660 ± 759,759 ± 394,1020 ± 46,64 ± 25,–,–,0.2 ± 0.1,–,< 0.1,0.1 ± 0.1 nM,–,–,–
C=CC(=O)Nc1cccc(-c2c(-c3ccc(N4CCN(C)CC4)cc3)[nH]c3ncnc(OCCCSC)c23)c1 [Compound 19e],< 14,2570 ± 338,3680 ± 500,3010 ± 916,281 ± 88,–,–,0.2,–,< 0.1,0.1 ± 0.1 nM,–,–,–
C=CC(=O)Nc1cccc(-c2c(-c3ccc(N4CCN(C)CC4)cc3)[nH]c3ncnc(OC4CCCC4)c23)c1 [Compound 19f],–,–,1790 ± 744,–,107 ± 45,–,128,0.2,–,< 0.1,< 0.1 nM,–,–,–
C=CC(=O)Nc1cccc(-c2c(-c3ccc(N4CCN(C)CC4)cc3)[nH]c3nc[nH]c(=O)c23)c1 [Compound 19i],557 ± 266,> 30000,–,> 30000,–,–,–,12 ± 4,–,12 ± 4,24 ± 12 nM,–,–,–
C=CC(=O)Nc1cc(-c2c(-c3ccc(N4CCN(C)CC4)cc3)[nH]c3ncnc(OC)c23)ccc1OCCOC [Compound 20a],< 14,1100,–,956,~300,–,–,0.2 ± 0.1,–,< 0.1,< 0.1 nM,–,–,298 ± 251
C=CC(=O)Nc1cccc(-c2c(-c3ccc(N4CCN(C)CC4)cc3)[nH]c3ncn(C)c(=O)c23)c1 [Compound 29a],82 ± 20,9510 ± 403,1140 ± 350,8820 ± 697,< 200,–,–,1.2 ± 0.1,–,0.5,0.5 nM,–,–,188 ± 64
C#CCn1cnc2[nH]c(-c3ccc(N4CCN(C)CC4)cc3)c(-c3cccc(NC(=O)C=C)c3)c2c1=O [Compound 29c],22 ± 2,2040,1020 ± 335,1390,183 ± 48,–,–,5.1 ± 0.1,–,4 ± 2.7,4.9 ± 1.3 nM,–,–,–
C=CC(=O)Nc1cccc(-c2c(-c3ccc(N4CCN(C)CC4)cc3)[nH]c3ncn(CCCC)c(=O)c23)c1 [Compound 29d],< 14,3270 ± 693,767 ± 151,2970 ± 1070,550 ± 157,–,–,0.2,–,0.3 ± 0.3,4.5 ± 0.8 nM,–,–,–
C=CC(=O)Nc1cccc(-c2c(-c3ccc(N4CCN(C)CC4)cc3)[nH]c3ncn(CCSC)c(=O)c23)c1 [Compound 29e],< 14,> 30000,1870 ± 595,22400 ± 11200,723 ± 188,–,–,0.4 ± 0.1,–,0.1 ± 0.1,0.9 ± 0.1 nM,–,–,–
C=CC(=O)Nc1cccc(-c2c(-c3ccc(N4CCN(C)CC4)cc3)[nH]c3ncn(CCCSC)c(=O)c23)c1 [Compound 29f],134,11900,–,24700 ± 7550,–,–,–,4.6 ± 1.1,–,1.7 ± 0.5,20 ± 6 nM,–,–,–
C=CC(=O)Nc1cccc(-c2c(-c3ccc(N4CCN(C)CC4)cc3)[nH]c3ncn(CC(C)C)c(=O)c23)c1 [Compound 29h],45 ± 7,6840 ± 866,1100 ± 506,6140 ± 2120,686 ± 199,–,–,0.8 ± 0.2,–,0.2 ± 0.1,> 1 nM and 3.4 nM,–,–,–
C=CC(=O)Nc1cccc(-c2c(-c3ccc(N4CCN(C)CC4)cc3)[nH]c3ncn(CC4CC4)c(=O)c23)c1 [Compound 29k],< 14,1790 ± 520,453 ± 218,1380 ± 985,228 ± 73,–,–,1.1 ± 0.8,–,0.9 ± 0.6,> 1 nM and 7.7 nM,–,–,–
C=CC(=O)Nc1cccc(-c2c(-c3ccc(N4CCN(C)CC4)cc3)[nH]c3ncn(Cc4ccccc4)c(=O)c23)c1 [Compound 29l],44 ± 26,> 30000,1080 ± 169,25200 ± 8250,1570 ± 260,–,–,1 ± 0.2,–,1.5 ± 0.8,> 1 nM and 21 nM,–,–,–
"Cc1cc(C(=O)Nc2nc3cccc(Cl)c3n2[C@@H]2CCCCN(C(=O)/C=C/CN(C)C)C2)ccn1 [EGF816, nazartinib, reference compound]",< 14,–,4380 ± 1390,–,296 ± 64,–,–,–,–,–,–,–,–,–
"C=CC(=O)Nc1cccc(Nc2nc(Nc3ccc(N4CCN(C(C)=O)CC4)cc3OC)ncc2C(F)(F)F)c1 [Rociletinib, rociletinib, reference compound]",45 ± 11,–,1910 ± 467,–,145 ± 86,–,–,–,–,–,–,–,–,–
